Test results taken from PMC12635268, “Novel antimicrobial peptides and peptide-microbiome crosstalk in Appalachian salamander skin” (NPJ Biofilms and Microbiomes, 2025).
Ends that are not written are not given here. Peptide text beside a SMILES is read from it.

Columns and labels:
[1] = system: A. baumannii ATCC 17978; experiment: microbe, parasite or virus in culture; details: ATCC 17978, 20 h
Procedure: (§1) Antimicrobial susceptibility testing of the 20 synthesized peptides against 17 bacterial strains of clinical relevance in the ESKAPEE panel was conducted using minimum inhibitory concentration (MIC) assays following the broth microdilution method outlined by Parker et al.[91]. The ESKAPEE panel is comprised of fourteen American Type Culture Collection (ATCC) strains and three Multidrug Resistant Organism Repository and Surveillance Network (MRSN) bacterial strains. These strains represent at least one drug-susceptible strain and one drug-resistant strain for each bacterium to assess drug efficacy across various resistance mechanisms. This panel is comprised of the following bacterial species and strains: E. faecium (ATCC 19434, ATCC 49224), S. aureus (ATCC 25923, ATCC 43300), K. pneumoniae (ATCC 700603, ATCC 13883, MRSN 1320), A. baumannii (ATCC 17978, ATCC 19606, MRSN 959), P. aeruginosa (ATCC 15692, ATCC 27853, MRSN 5519), E. cloacae (ATCC 13047, ATCC 35549), and E. coli (ATCC 35218, ATCC 43888). Bacteria were grown in cation-adjusted Mueller-Hinton broth (CAMHB) to achieve a final inoculum of 1 × 10⁵ CFU/mL. CAMHB is selected for its batch-to-batch reproducibility, low levels of antimicrobial inhibitors, and ability to support the growth of most bacterial pathogens.
(§2) Briefly, lyophilized peptides were dissolved in 0.2% TFA + 0.4% BSA in water to 2.56 mg/mL, ultrasonicated for 20 min, diluted 10-fold into CAMHB, and then serially diluted 2-fold in 0.02% TFA + 0.04% BSA in CAMHB and assayed at a concentration of 0.25 to 128 μg/mL. Assays were set up using the Tecan Freedom EVO liquid handling robot and software (Tecan, Switzerland) with 50 μL of bacterial inoculum and 50 μL of peptide transferred into round-bottom 96-well microtiter plates. Each plate assay was performed in duplicate and incubated at 37 °C for 20 h without agitation. Bacterial growth was assessed using the BIOMIC V3 Image Analysis system (Giles Scientific, USA) and the MIC values were determined visually according to the Clinical and Laboratory Standards Institute (CLSI) guidelines.

[2] = system: A. baumannii ATCC 19606; experiment: microbe, parasite or virus in culture; details: ATCC 19606, 20 h
Procedure: as §1, §2

[3] = system: E. cloacae ATCC 13047; experiment: microbe, parasite or virus in culture; details: ATCC 13047, 20 h
Procedure: as §1, §2

[4] = system: E. cloacae ATCC 35549; experiment: microbe, parasite or virus in culture; details: ATCC 35549, 20 h
Procedure: as §1, §2

[5] = system: E. coli ATCC 35218; experiment: microbe, parasite or virus in culture; details: E. coli 35218; Week 1 (12/6/2023)
Procedure: as §1, §2

[6] = system: E. coli ATCC 43888; experiment: microbe, parasite or virus in culture; details: ATCC 43888, 20 h
Procedure: as §1, §2

[7] = system: E. faecium ATCC 19434; experiment: microbe, parasite or virus in culture; details: ATCC 19434, 20 h
Procedure: as §1, §2

[8] = system: E. faecium ATCC 49224; experiment: microbe, parasite or virus in culture; details: ATCC 49224, 20 h
Procedure: as §1, §2

[9] = system: K. pneumoniae ATCC 13883; experiment: microbe, parasite or virus in culture; details: ATCC 13883, 20 h
Procedure: as §1, §2

[10] = system: K. pneumoniae ATCC 700603; experiment: microbe, parasite or virus in culture; details: K. pneumoniae 700603; Week 1 (12/6/2023)
Procedure: as §1, §2

[11] = system: P. aeruginosa ATCC 27853; experiment: microbe, parasite or virus in culture; details: ATCC 27853, 20 h
Procedure: as §1, §2

[12] = system: P. aeruginosa MRSN 5519; experiment: microbe, parasite or virus in culture; details: MRSN 5519, 20 h
Procedure: as §1, §2

[13] = system: S. aureus ATCC 25923; experiment: microbe, parasite or virus in culture; details: ATCC 25923, 20 h
Procedure: as §1, §2

[14] = system: S. aureus ATCC 43300; experiment: microbe, parasite or virus in culture; details: S. aureus 43300; Week 1 (12/6/2023)
Procedure: as §1, §2

[15] = system: P. aeruginosa PA01 (Si); experiment: microbe, parasite or virus in culture; format: cell-based; details: Si
Text: Supplement 41522_2025_837_MOESM13_ESM.xlsx, sheet "Table_S13_ESKAPEE-MIC" | column: Bacterial MIC (µg/mL)

[16] = system: K. pneumoniae 4640; details: 4640, 20 h
[17] = system: A. baumannii 5075; details: Week 1 (12/6/2023)
[18] = parameters: method as in Biomatik (vendor); details: 1.0 mg peptide in 1.0 ml solvent; peptides synthesized by Biomatik; ref Biomatik (vendor); cited from earlier work

| Molecule | Bacterial MIC [1] | Bacterial MIC [2] | Bacterial MIC [3] | Bacterial MIC [4] | Bacterial MIC [5] | Bacterial MIC [6] | Bacterial MIC [7] | Bacterial MIC [8] | Bacterial MIC [9] | Bacterial MIC [10] | Bacterial MIC [11] | Bacterial MIC [12] | Bacterial MIC [13] | Bacterial MIC [14] | Bacterial MIC [15] | Bacterial MIC [16] | Bacterial MIC [17] | Suggest solvent (solubility) [18] |
| --- | --- | --- | --- | --- | --- | --- | --- | --- | --- | --- | --- | --- | --- | --- | --- | --- | --- | --- |
| IRRPPGFSPFR [PrAd-Eb8] | >128.000 mg/L | >128.000 mg/L | >128.000 mg/L | >128.000 mg/L | >128.000 mg/L | >128.000 mg/L | >128.000 mg/L | >128.000 mg/L | >128.000 mg/L | >128.000 mg/L | >128.000 mg/L | >128.000 mg/L | >128.000 mg/L | >128.000 mg/L | >128.000 mg/L | >128.000 mg/L | >128.000 mg/L | 1.0mg peptide soluble in 1.0ml H2O |
| LHTKRVQNKKKNGNRRQTIGKKCTAGFICKKEYLKLNPGIYSVIHD (cysteines drawn unpaired) [Tr-Eb1] | >128.000 mg/L | >128.000 mg/L | >128.000 mg/L | >128.000 mg/L | >128.000 mg/L | >128.000 mg/L | >128.000 mg/L | >128.000 mg/L | >128.000 mg/L | >128.000 mg/L | >128.000 mg/L | >128.000 mg/L | >128.000 mg/L | >128.000 mg/L | >128.000 mg/L | >128.000 mg/L | >128.000 mg/L | 1.0mg peptide soluble in 1.0ml DMSO |
| CC[C@H](C)[C@H](NC(=O)[C@H](CO)NC(=O)[C@H](CO)NC(=O)[C@H](Cc1ccccc1)NC(=O)[C@H](CS)NC(=O)CNC(=O)[C@@H]1CCCN1C(=O)[C@H](CCCNC(=N)N)NC(=O)[C@H](CCCNC(=N)N)NC(=O)CNC(=O)[C@H](CS)NC(=O)[C@H](CCCNC(=N)N)NC(=O)[C@H](CCCNC(=N)N)NC(=O)[C@@H]1CCCN1C(=O)[C@H](C)NC(=O)CNC(=O)[C@H](CCCNC(=N)N)NC(=O)[C@@H](NC(=O)[C@H](CC(C)C)NC(=O)[C@H](CCCNC(=N)N)NC(=O)[C@@H](NC(=O)CNC(=O)[C@H](CCCNC(=N)N)NC(=O)[C@H](CCCCN)NC(=O)[C@@H](NC(=O)[C@H](Cc1c[nH]cn1)NC(=O)[C@@H](NC(=O)[C@@H](N)CCC(=O)O)[C@@H](C)CC)[C@@H](C)O)[C@@H](C)O)C(C)C)C(=O)NCC(=O)N[C@@H](CCCCN)C(=O)N[C@H](C(=O)N[C@@H](CCC(=O)O)C(=O)O)C(C)C [TrPr-Eb2] (H-EIHTKRGTRLVRGAPRRCGRRPGCFSSIGKVE-OH; N-terminus and C-terminus assumed) | >128.000 mg/L | >128.000 mg/L | >128.000 mg/L | >128.000 mg/L | >128.000 mg/L | >128.000 mg/L | >128.000 mg/L | >128.000 mg/L | >128.000 mg/L | >128.000 mg/L | >128.000 mg/L | >128.000 mg/L | >128.000 mg/L | >128.000 mg/L | >128.000 mg/L | >128.000 mg/L | >128.000 mg/L | 1.0mg peptide soluble in 1.0ml H2O |
| CC[C@H](C)[C@H](NC(=O)[C@H](CCSC)NC(=O)[C@H](CS)NC(=O)[C@H](CC(C)C)NC(=O)[C@@H](NC(=O)[C@H](CS)NC(=O)[C@H](CS)NC(=O)[C@H](CCSC)NC(=O)[C@H](CS)NC(=O)[C@H](CO)NC(=O)[C@H](CC(C)C)NC(=O)[C@H](CCC(N)=O)NC(=O)[C@H](CCCCN)NC(=O)[C@H](Cc1c[nH]cn1)NC(=O)[C@H](CCC(N)=O)NC(=O)[C@H](Cc1c[nH]c2ccccc12)NC(=O)[C@@H](NC(=O)[C@@H](NC(=O)[C@H](CCC(=O)O)NC(=O)[C@@H](NC(=O)[C@H](CC(=O)O)NC(=O)[C@@H](NC(=O)[C@H](CC(C)C)NC(=O)[C@H](CC(=O)O)NC(=O)[C@@H](N)CCCCN)[C@@H](C)CC)[C@@H](C)O)[C@@H](C)O)[C@@H](C)O)C(C)C)C(=O)N[C@@H](C)C(=O)N[C@@H](CCCCN)C(=O)N[C@@H](CCCNC(=N)N)C(=O)N[C@@H](CS)C(=O)N[C@@H](CS)C(=O)O [Tr-Pc15] (H-KDLIDTETTWQHKQLSCMCCVLCMIAKRCC-OH; N-terminus and C-terminus assumed) | >128.000 mg/L | >128.000 mg/L | >128.000 mg/L | >128.000 mg/L |  | >128.000 mg/L | >128.000 mg/L | >128.000 mg/L | >128.000 mg/L |  | >128.000 mg/L | >128.000 mg/L | >128.000 mg/L |  | >128.000 mg/L | >128.000 mg/L |  | 1.0mg peptide soluble in 1.0ml DMSO |
| CC[C@H](C)[C@H](N)C(=O)N[C@@H](CC(C)C)C(=O)N[C@@H](CCCNC(=N)N)C(=O)N[C@@H](CCCCN)C(=O)N1CCC[C@H]1C(=O)N[C@@H](CCC(=O)O)C(=O)N[C@@H](CCCCN)C(=O)N[C@@H](CC(=O)O)C(=O)N[C@@H](CC(=O)O)C(=O)N[C@@H](CC(=O)O)C(=O)N[C@H](C(=O)N[C@@H](CO)C(=O)N[C@@H](CO)C(=O)N[C@@H](CCCNC(=N)N)C(=O)N[C@H](C(=O)NCC(=O)N[C@@H](Cc1ccc(O)cc1)C(=O)N[C@@H](CC(C)C)C(=O)N[C@@H](Cc1ccccc1)C(=O)N[C@@H](CS)C(=O)N[C@@H](CS)C(=O)N[C@@H](CCCCN)C(=O)N[C@@H](CCSC)C(=O)N[C@@H](CCCNC(=N)N)C(=O)N[C@@H](CC(C)C)C(=O)N[C@@H](CS)C(=O)N[C@@H](C)C(=O)N[C@@H](CS)C(=O)N[C@@H](CCCNC(=N)N)C(=O)N[C@@H](CCCNC(=N)N)C(=O)N[C@@H](CO)C(=O)O)[C@@H](C)CC)[C@@H](C)O [Tr-Eb4] (H-ILRKPEKDDDTSSRIGYLFCCKMRLCACRRS-OH; N-terminus and C-terminus assumed) | >128.000 mg/L | >128.000 mg/L | >128.000 mg/L | >128.000 mg/L |  | >128.000 mg/L | >128.000 mg/L | >128.000 mg/L | >128.000 mg/L |  | >128.000 mg/L | >128.000 mg/L | >128.000 mg/L |  | >128.000 mg/L | >128.000 mg/L |  | 1.0mg peptide soluble in 1.0ml DMSO |
